{"source": "paper PMC4113456", "about": "“Atypical Signaling and Functional Desensitization Response of MAS Receptor to Peptide Ligands” (PLoS ONE, 2014)", "key": {"MAS [1]": {"test_system": "MAS", "design": "method as in ref [9] (a number printed in a supplementary file, which may have a reference list of its own: not looked up in the article's list)", "settings": "Rat MAS; ref [9]; read-out: EC50 (cAMP assay); cited from earlier work"}, "MAS F112A mutant": {"biological_target": "T1, MAS F112A mutant (Homo sapiens, UniProt P04201, F112A)", "T1 construct": "expressed in transfected cells", "T1 sequence (P04201 1-325 F112A)": "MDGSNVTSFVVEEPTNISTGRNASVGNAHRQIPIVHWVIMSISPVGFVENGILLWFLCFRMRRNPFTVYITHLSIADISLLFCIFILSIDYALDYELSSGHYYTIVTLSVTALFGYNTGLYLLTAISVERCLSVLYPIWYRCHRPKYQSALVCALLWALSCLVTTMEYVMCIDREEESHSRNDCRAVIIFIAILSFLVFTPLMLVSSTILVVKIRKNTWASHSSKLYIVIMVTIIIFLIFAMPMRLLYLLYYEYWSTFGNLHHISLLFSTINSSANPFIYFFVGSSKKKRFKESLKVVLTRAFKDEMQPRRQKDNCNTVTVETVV", "assay": "Calcium assay, F112A MAS mutant stable cell line", "assay_type": "cell-based", "quoted_text": "(§1) The assay was performed using FLIPR Calcium 5 assay kit (Molecular Devices, Sunnyvale, CA). For calcium measurements, cells at a density of 125,000 cells/well in 100 µl medium were seeded onto a 96-well clear bottom black cell culture plate that was pre-coated with poly-L-lysine. In the calcium assays the cell density of 125,000 cells/well was consistently maintained to minimize variability between independent experiments. The cells were seeded in induction media to induce MAS expression or in complete media for negative controls. The plate was maintained in a cell culture incubator for 26–28 h. The cells were then serum starved for 2 h by replacing the medium with 100 µl of serum free DMEM. In the case of pre-treatment with pan-inhibitor of G protein signaling, BIM-46187, the cells were initially serum starved for 1 h by replacing the medium with 50 µl of serum free DMEM. After 1 h, 50 µl of BIM-46187 was added to the cells to a final concentration of 25 µM and treated for another 1 h. Following serum starvation, 100 µl of calcium sensitive dye along with 2x (2.5 mM final concentration) probenecid (Life Technologies, Grand Island, NY) was added to the cells. During this step, AR-inverse agonist or BIM-46187 was also added at desired concentrations to the calcium dye preparation in case of experiments where cells were pre-treated with these inhibitors. The cells were maintained for one hour in the cell culture incubator. […] The instrument was programmed in FLEX mode to add ligands (50 µl at 5x concentration) to the cells and to monitor the fluorescence before and after adding the ligands. […]\n(§2) The kinetic parameter t1/2 (time taken to reach half of the maximum response) was determined using SoftMax Pro software supplied with the FlexStation 3 instrument (Molecular Devices, Sunnyvale, CA).\n(§3) For re-stimulation assays, the data is expressed as the percentage of maximum agonist stimulation to allow for ready comparison between individual experiments. […]"}, "MAS [2]": {"biological_target": "T2, MAS (Homo sapiens, UniProt P04201)", "T2 construct": "expressed in transfected cells", "T2 sequence (P04201 1-325)": "T1 sequence (P04201 1-325 F112A) with A112F", "assay": "Intracellular cAMP assay, induced MAS cells", "assay_type": "cell-based", "settings": "data not shown", "protocol": "Measurement of intracellular cAMP. The intracellular cAMP levels were measured using CatchPoint™ cAMP Fluorescent assay kit from Molecular devices (Molecular Devices, Sunnyvale, CA). For the cAMP assay, the cells were plated at a density of 1.25 million cells/well in a six-well plate. The cells were maintained in a cell culture incubator and induced the following day with doxycycline. The cells were serum starved for 2h following the induction for 26-28h. At this point the serum free media was replaced with 1ml of 3-Isobutyl-1-methylxanthine (Sigma-Aldrich, St. Louis, MO) at 1mM concentration for 15min at 37°C. Following this, 250µl of ligands were added at 5x concentration to the wells and incubated for another 15min at 37°C. The plates were then immediately transferred to ice and the cells were lysed with 150µl of lysis buffer provided with kit. The cAMP levels in the lysed samples were measured according to the protocol provided by the supplier."}, "MAS M244A mutant": {"biological_target": "T3, MAS M244A mutant (Homo sapiens, UniProt P04201, M244A)", "T3 construct": "expressed in transfected cells", "T3 sequence (P04201 1-325 M244A)": "T1 sequence (P04201 1-325 F112A) with A112F, M244A", "assay": "Calcium assay, M244A MAS mutant stable cell line", "assay_type": "cell-based", "quoted_text": "as §1, §2, §3"}, "[3]": {"assay": "Solubility of ligand stock in assay buffer", "assay_type": "physicochemical", "settings": "5x ligand stock in D-PBS, at greater than 50 µM"}, "MAS I191A mutant": {"biological_target": "T4, MAS I191A mutant (Homo sapiens, UniProt P04201, I191A)", "T4 construct": "expressed in transfected cells", "T4 sequence (P04201 1-325 I191A)": "T1 sequence (P04201 1-325 F112A) with A112F, I191A", "assay": "Calcium assay, I191A MAS mutant stable cell line", "assay_type": "cell-based", "quoted_text": "as §1, §2, §3"}, "MAS [4]": {"biological_target": "T2, MAS", "design": "method as in ref [9] (a number printed in a supplementary file, which may have a reference list of its own: not looked up in the article's list)", "settings": "ref [9], read-out: EC50 (cAMP assay); cited from earlier work"}}, "note": "Numbering of substitutions follows the chain as printed.", "data": [{"smiles": "COc1cc([N+](=O)[O-])ccc1S(=O)(=O)N1CC(CN2CCN(c3ccccn3)CC2)C(c2cccc(F)c2)C1", "note": "(stereo not shown) [AR-agonist]", "values": [{"measurement": "EC50", "setting": "MAS [1]", "value": 1710, "unit": "nM"}, {"measurement": "EC50, Calcium assay", "setting": "MAS F112A mutant", "value": "cbd"}, {"measurement": "t1/2, Calcium assay", "setting": "MAS F112A mutant", "value": "cbd"}, {"measurement": "Effect on cAMP levels", "setting": "MAS [2]", "value": "decreased cAMP levels"}, {"measurement": "EC50, Calcium assay", "setting": "MAS M244A mutant", "value": "cbd"}, {"measurement": "t1/2, Calcium assay", "setting": "MAS M244A mutant", "value": "cbd"}, {"measurement": "Solubility", "setting": "[3]", "value": "solubility issues"}, {"measurement": "EC50", "setting": "MAS I191A mutant", "value": "17600 ± 3800", "unit": "nM"}, {"measurement": "t1/2, Calcium assay", "setting": "MAS I191A mutant", "value": "1.14 ± 0.0883", "unit": "min"}, {"measurement": "EC50", "setting": "MAS [4]", "value": 720, "unit": "nM"}]}]}
